# Assay results from ChEMBL document CHEMBL5034001 (J Med Chem, 2021).
# pIC50: −log10 of the molar value. The source made the active and inactive calls. The calls are words filed in the database; no cut-off is given here.
# Columns and labels:
# [1] = biological target: T1, ALK tyrosine kinase receptor (Homo sapiens, UniProt Q9UM73); assay: Induction of ALK degradation in human SR cells assessed as protein stability at 50 ug/ml after 24 hrs; type: cell-based; settings: dose 50.0 µg/ml
# [2] = biological target: Focal adhesion kinase 1 (Homo sapiens) (UniProt Q05397); assay: Induction of FAK degradation in human MDA-MB-231 cells assessed as protein stability at 50 ug/ml after 8 hrs; type: cell-based; settings: dose 50.0 µg/ml
# [3] = biological target: Protein-tyrosine kinase 2-beta (Homo sapiens) (UniProt Q14289); assay: Induction of PYK2 degradation in human MDA-MB-231 cells assessed as protein stability at 50 ug/ml after 8 hrs; type: cell-based; settings: dose 50.0 µg/ml
# SR [4] = assay: Antiproliferative activity against human SR cells assessed as inhibition of cell growth incubated for 72 hrs by CCK8 assay; type: functional, cell-based
# [5] = biological target: T1, ALK tyrosine kinase receptor; assay: Induction of ALK degradation in human SR cells at 500 nM after 16 hrs by Western blot analysis; type: cell-based
# SR [6] = assay: Antiproliferative activity against human SR cells assessed as inhibition of cell growth at 10 nM preincubated for 5 days followed by compound washout and measured on day 7 and 9 by CCK8 assay; type: functional, cell-based; settings: time 5.0 day
# [7] = biological target: Signal transducer and activator of transcription 3 (Homo sapiens) (UniProt P40763); assay: Inhibition of STAT3 downstream signalling in human SR cells assessed as reduction in pSTAT3 level at 10 nM by Western blot analysis; type: cell-based
# [8] = biological target: Signal transducer and activator of transcription 3 (Homo sapiens) (UniProt P40763); assay: Inhibition of STAT3 downstream signalling in human NCI-H2228 cells assessed as reduction in pSTAT3 level at 1 to 1000 nM by Western blot analysis; type: cell-based; settings: dose 1-1000 nM
# HEK-293T = assay: Antiproliferative activity against human 293T cells overexpressing ALK G1202R mutant assessed as cell growth inhibition after 72 hrs; type: functional, cell-based
# SR [9] = assay: Induction of G1 cell cycle arrest in human SR cells at 100 nM after 24 to 48 hrs; type: functional, cell-based; settings: time 24-48 hrs
# Calu-1 [10] = assay: Induction of G1 cell cycle arrest in human Calu-1 cells at 100 nM after 24 to 48 hrs; type: functional, cell-based; settings: time 24-48 hrs
# MDA-MB-231 [11] = assay: Induction of G1 cell cycle arrest in human MDA-MB-231 cells at 100 nM after 24 to 48 hrs; type: functional, cell-based; settings: time 24-48 hrs
# Calu-1 [12] = assay: Induction of apoptosis in human Calu-1 cells at 100 nM after 72 hrs; type: functional, cell-based
# MDA-MB-231 [13] = assay: Induction of apoptosis in human MDA-MB-231 cells at 100 nM after 72 hrs; type: functional, cell-based
# Calu-1 [14] = assay: Inhibition of cell migration in human Calu-1 cells at 100 nM after 12 to 24 hrs by wound healing assay; type: functional, cell-based; settings: time lower […], time upper 24.0 hrs
# MDA-MB-231 [15] = assay: Inhibition of cell migration in human MDA-MB-231 cells at 100 nM after 48 hrs by wound healing assay; type: functional, cell-based
# MDA-MB-231 [16] = assay: Inhibition of cell migration in human MDA-MB-231 cells assessed as wound confluence ratio at 500 nM after 48 hrs by wound healing assay; type: functional
# T1 sequence (Q9UM73 19-1620 limits assumed): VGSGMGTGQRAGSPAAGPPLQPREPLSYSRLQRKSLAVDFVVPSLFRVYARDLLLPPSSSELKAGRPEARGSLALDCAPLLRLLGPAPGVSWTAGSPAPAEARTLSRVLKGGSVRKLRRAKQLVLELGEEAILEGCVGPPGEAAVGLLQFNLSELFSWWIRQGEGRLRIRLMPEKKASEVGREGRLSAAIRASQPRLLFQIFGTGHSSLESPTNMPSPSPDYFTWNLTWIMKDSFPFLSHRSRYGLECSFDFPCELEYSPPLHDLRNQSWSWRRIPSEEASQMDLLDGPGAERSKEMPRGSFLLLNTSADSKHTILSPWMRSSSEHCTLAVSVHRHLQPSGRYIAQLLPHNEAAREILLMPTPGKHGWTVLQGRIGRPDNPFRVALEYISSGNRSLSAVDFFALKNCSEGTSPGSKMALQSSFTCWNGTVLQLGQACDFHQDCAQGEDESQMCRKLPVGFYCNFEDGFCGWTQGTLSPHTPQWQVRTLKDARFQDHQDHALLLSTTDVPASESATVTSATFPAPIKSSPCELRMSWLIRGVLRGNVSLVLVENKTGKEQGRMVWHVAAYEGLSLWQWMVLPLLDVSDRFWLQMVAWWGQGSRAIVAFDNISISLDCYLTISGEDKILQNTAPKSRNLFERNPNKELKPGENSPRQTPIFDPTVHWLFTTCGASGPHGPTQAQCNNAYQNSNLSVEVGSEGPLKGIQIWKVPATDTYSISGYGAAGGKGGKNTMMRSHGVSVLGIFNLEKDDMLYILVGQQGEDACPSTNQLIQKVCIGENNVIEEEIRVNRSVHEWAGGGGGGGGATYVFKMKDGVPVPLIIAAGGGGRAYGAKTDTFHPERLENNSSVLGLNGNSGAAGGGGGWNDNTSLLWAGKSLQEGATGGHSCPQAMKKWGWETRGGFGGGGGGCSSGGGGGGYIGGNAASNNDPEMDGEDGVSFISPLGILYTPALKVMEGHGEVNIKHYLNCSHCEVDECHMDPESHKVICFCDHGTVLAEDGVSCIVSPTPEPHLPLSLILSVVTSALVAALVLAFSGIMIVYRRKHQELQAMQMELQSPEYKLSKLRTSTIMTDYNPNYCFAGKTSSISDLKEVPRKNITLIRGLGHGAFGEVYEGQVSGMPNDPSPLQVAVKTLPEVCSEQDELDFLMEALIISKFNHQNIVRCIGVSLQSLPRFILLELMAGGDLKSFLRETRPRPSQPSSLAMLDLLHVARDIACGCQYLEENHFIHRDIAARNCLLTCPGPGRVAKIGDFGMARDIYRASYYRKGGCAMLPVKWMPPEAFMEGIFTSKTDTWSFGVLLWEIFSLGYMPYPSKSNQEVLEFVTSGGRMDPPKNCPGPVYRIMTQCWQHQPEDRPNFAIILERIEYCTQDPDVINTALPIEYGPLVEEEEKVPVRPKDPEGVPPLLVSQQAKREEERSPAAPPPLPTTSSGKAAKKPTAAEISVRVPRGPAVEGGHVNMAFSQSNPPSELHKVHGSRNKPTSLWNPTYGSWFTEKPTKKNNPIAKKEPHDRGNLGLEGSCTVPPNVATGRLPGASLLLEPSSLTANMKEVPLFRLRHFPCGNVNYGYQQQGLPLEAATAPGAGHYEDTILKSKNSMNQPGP
# Signal transducer and activator of transcription 3 (Homo sapiens), sequence (P40763 whole entry): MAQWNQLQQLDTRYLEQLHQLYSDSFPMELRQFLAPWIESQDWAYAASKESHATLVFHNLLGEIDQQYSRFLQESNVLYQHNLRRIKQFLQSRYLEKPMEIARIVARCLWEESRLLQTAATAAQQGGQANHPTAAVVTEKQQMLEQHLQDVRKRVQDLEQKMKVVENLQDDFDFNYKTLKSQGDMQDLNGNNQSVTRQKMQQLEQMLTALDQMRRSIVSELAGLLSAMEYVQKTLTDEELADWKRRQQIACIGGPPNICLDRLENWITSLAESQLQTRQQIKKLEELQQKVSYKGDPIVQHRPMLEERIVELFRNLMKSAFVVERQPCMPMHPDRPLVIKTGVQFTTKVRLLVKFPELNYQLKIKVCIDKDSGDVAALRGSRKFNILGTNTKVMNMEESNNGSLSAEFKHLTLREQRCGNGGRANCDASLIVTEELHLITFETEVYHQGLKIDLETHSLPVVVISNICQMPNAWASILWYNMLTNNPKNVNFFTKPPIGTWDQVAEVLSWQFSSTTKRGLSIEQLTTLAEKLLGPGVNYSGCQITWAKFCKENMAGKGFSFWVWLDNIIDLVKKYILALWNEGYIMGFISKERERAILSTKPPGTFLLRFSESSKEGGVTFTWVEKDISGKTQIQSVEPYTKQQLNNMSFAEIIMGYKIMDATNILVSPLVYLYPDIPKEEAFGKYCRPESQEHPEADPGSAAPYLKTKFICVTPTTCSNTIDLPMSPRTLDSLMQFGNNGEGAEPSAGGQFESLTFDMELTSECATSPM
# Protein-tyrosine kinase 2-beta (Homo sapiens), sequence (Q14289 whole entry, looked up): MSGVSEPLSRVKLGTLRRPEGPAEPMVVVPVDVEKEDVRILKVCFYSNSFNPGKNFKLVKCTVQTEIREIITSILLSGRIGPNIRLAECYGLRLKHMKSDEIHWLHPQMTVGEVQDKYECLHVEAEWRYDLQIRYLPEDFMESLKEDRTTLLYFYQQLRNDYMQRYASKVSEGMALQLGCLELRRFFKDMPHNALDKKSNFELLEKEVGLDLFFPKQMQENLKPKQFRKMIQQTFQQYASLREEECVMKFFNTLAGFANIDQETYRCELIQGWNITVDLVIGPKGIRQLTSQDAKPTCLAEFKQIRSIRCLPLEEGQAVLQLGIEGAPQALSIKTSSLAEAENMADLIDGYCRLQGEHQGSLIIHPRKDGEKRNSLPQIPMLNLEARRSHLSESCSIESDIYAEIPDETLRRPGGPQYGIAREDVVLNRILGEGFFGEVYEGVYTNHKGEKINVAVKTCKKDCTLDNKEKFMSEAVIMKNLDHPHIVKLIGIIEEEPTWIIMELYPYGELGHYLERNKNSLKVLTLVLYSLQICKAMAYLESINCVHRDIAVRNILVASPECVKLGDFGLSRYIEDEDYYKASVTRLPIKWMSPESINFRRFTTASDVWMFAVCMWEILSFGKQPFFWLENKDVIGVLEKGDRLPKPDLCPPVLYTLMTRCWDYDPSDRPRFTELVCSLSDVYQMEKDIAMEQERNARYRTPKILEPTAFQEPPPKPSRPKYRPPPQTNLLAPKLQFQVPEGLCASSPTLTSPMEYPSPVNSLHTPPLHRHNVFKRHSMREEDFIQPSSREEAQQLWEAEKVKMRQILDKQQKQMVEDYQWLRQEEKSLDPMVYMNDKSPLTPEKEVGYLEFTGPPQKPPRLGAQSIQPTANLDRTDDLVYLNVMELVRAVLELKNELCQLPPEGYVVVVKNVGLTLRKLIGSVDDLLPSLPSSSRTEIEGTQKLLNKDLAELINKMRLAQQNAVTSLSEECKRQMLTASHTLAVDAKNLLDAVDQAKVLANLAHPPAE
# Focal adhesion kinase 1 (Homo sapiens), sequence (Q05397 2-1052 limits assumed): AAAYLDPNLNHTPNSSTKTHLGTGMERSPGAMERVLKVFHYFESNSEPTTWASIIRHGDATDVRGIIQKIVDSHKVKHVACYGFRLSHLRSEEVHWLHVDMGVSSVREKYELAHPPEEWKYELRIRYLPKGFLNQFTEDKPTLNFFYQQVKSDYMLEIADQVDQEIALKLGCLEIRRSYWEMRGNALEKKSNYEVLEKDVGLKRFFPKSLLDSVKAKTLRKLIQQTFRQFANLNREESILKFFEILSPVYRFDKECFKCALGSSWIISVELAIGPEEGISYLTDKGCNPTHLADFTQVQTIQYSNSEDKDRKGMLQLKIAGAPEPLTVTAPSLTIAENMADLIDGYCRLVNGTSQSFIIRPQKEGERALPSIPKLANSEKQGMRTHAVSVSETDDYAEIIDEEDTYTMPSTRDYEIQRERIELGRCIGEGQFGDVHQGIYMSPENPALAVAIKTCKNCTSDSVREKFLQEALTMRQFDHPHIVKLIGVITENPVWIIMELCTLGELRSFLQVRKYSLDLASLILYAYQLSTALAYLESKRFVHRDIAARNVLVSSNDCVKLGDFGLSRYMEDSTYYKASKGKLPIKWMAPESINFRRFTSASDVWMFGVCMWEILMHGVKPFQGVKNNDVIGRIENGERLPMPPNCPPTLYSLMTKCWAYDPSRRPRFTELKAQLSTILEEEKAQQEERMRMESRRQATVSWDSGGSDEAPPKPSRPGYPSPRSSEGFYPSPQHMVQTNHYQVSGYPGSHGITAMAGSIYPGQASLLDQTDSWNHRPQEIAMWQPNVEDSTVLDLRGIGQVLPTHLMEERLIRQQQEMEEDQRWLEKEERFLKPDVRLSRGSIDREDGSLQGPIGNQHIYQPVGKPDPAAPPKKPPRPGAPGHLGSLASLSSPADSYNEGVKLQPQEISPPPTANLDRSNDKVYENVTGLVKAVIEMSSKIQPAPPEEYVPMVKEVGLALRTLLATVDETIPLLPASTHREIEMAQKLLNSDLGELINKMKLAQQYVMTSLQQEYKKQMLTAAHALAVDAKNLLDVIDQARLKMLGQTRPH
smiles,measurement,setting,value
C[C@@H]1C[C@@H]([C@H](O)CC2CC(=O)NC(=O)C2)C(=O)[C@@H](C)C1,Activity,[1],Active
same,Activity,[2],Active
same,Activity,[3],Active
COc1cc(N2CCC(N3CCN(C(=O)CNc4cccc5c4C(=O)N(C4CCC(=O)N(C)C4=O)C5=O)CC3)CC2)ccc1Nc1ncc(Cl)c(Nc2ccccc2P(C)(C)=O)n1 (stereo not drawn),pIC50,SR [4],7.79
same,Activity,[5],Active
COc1cc(N2CCC(N3CCN(C(=O)CCCCCCNc4cccc5c4C(=O)N(C4CCC(=O)NC4=O)C5=O)CC3)CC2)ccc1Nc1ncc(Cl)c(Nc2ccccc2P(C)(C)=O)n1 (stereo not drawn),pIC50,SR [4],8.32
COc1cc(N2CCC(N3CCN(C(=O)CCCCNc4cccc5c4C(=O)N(C4CCC(=O)NC4=O)C5=O)CC3)CC2)ccc1Nc1ncc(Cl)c(Nc2ccccc2P(C)(C)=O)n1 (stereo not drawn),pIC50,SR [4],8.13
COc1cc(N2CCC(N3CCN(C(=O)CCCNc4cccc5c4C(=O)N(C4CCC(=O)NC4=O)C5=O)CC3)CC2)ccc1Nc1ncc(Cl)c(Nc2ccccc2P(C)(C)=O)n1 (stereo not drawn),pIC50,SR [4],8.54
COc1cc(N2CCC(N3CCN(C)CC3)CC2)ccc1Nc1ncc(Cl)c(Nc2ccccc2P(C)(C)=O)n1 [BRIGATINIB],pIC50,SR [4],8.48
same,Activity,SR [6],inactive
same,inhibition,[7],Active
same,inhibition,[8],inactive
same,pIC50,HEK-293T,6.07
same,Activity,SR [9],Active
same,Activity,Calu-1 [10],inactive
same,Activity,MDA-MB-231 [11],inactive
same,Activity,Calu-1 [12],inactive
same,Activity,MDA-MB-231 [13],inactive
same,inhibition,Calu-1 [14],inactive
same,inhibition,MDA-MB-231 [15],inactive
same,inhibition at 0.5 µM,MDA-MB-231 [16],56%
COc1cc(N2CCC(N3CCN(C(=O)CCCCCNc4cccc5c4C(=O)N(C4CCC(=O)NC4=O)C5=O)CC3)CC2)ccc1Nc1ncc(Cl)c(Nc2ccccc2P(C)(C)=O)n1 (stereo not drawn),pIC50,SR [4],8.48
COc1cc(N2CCC(N3CCN(C(=O)CCOCCOCCNc4cccc5c4C(=O)N(C4CCC(=O)NC4=O)C5=O)CC3)CC2)ccc1Nc1ncc(Cl)c(Nc2ccccc2P(C)(C)=O)n1 (stereo not drawn),pIC50,SR [4],8.44
COc1cc(N2CCC(N3CCN(C(=O)CCOCCOCCOCCOCCOCCNc4cccc5c4C(=O)N(C4CCC(=O)NC4=O)C5=O)CC3)CC2)ccc1Nc1ncc(Cl)c(Nc2ccccc2P(C)(C)=O)n1 (stereo not drawn),pIC50,SR [4],7.85
COc1cc(N2CCC(N3CCN(C(=O)CCOCCNc4cccc5c4C(=O)N(C4CCC(=O)NC4=O)C5=O)CC3)CC2)ccc1Nc1ncc(Cl)c(Nc2ccccc2P(C)(C)=O)n1 (stereo not drawn),pIC50,SR [4],8.42
COc1cc(N2CCC(N3CCN(C(=O)CCOCCOCCOCCNc4cccc5c4C(=O)N(C4CCC(=O)NC4=O)C5=O)CC3)CC2)ccc1Nc1ncc(Cl)c(Nc2ccccc2P(C)(C)=O)n1 (stereo not drawn),pIC50,SR [4],8.28
COc1cc(N2CCC(N3CCN(C(=O)CCOCCOCCOCCOCCNc4cccc5c4C(=O)N(C4CCC(=O)NC4=O)C5=O)CC3)CC2)ccc1Nc1ncc(Cl)c(Nc2ccccc2P(C)(C)=O)n1 (stereo not drawn),pIC50,SR [4],7.95
COc1cc(N2CCC(N3CCN(C(=O)CCNc4cccc5c4C(=O)N(C4CCC(=O)NC4=O)C5=O)CC3)CC2)ccc1Nc1ncc(Cl)c(Nc2ccccc2P(C)(C)=O)n1 (stereo not drawn),pIC50,SR [4],8.02
